# Experiments:
# Assay in all cases: In vitro antibacterial activity, agar disc dilution method
# Assay type in all cases: cell-based
# E.cloacae 963 = settings: Enterobacter cloacae; E.cloacae 963; Mueller Hinton agar, 10^6/ml, 37°C for 16 hours; read-out: minimum growth inhibitory concentration (MIC)
# Protocol: (§1) An in vitro antibacterial activity was measured by an agar disc dilution method.
# (§2) Varied test bacteria were cultivated overnight in triptophane-soybroth. A Mueller Hinton agar containing the compound of this invention in varied concentrations was streaked with one platinum loopful of each of the bacteria (number of living cells 10^6/ml).
# K.pneumoniae PCI602 = settings: Klebsiella pneumoniae; K.pneumoniae PCI602; Mueller Hinton agar, 10^6/ml, 37°C for 16 hours; read-out: minimum growth inhibitory concentration (MIC)
# Protocol: as §1, §2
# M.luteus ATCC9341 = settings: Micrococcus luteus; M.luteus ATCC9341; Mueller Hinton agar, 10^6/ml, 37°C for 16 hours; read-out: minimum growth inhibitory concentration (MIC)
# Protocol: as §1, §2
# P.aeruginosa IFO3445 = settings: Pseudomonas aeruginosa; P.aeruginosa IFO3445; Mueller Hinton agar, 10^6/ml, 37°C for 16 hours; read-out: minimum growth inhibitory concentration (MIC)
# Protocol: as §1, §2
# P.aeruginosa NCTC1049 = settings: Pseudomonas aeruginosa; P.aeruginosa NCTC1049; Mueller Hinton agar, 10^6/ml, 37°C for 16 hours; read-out: minimum growth inhibitory concentration (MIC)
# Protocol: as §1, §2
# P.aeruginosa PAD1 = settings: Pseudomonas aeruginosa; P.aeruginosa PAD1; Mueller Hinton agar, 10^6/ml, 37°C for 16 hours; read-out: minimum growth inhibitory concentration (MIC)
# Protocol: as §1, §2
# P.morganii IFO3445 = settings: Morganella morganii; P.morganii IFO3445; Mueller Hinton agar, 10^6/ml, 37°C for 16 hours; read-out: minimum growth inhibitory concentration (MIC)
# Protocol: as §1, §2
# P.vulgalis OX-11 = settings: P.vulgalis OX-11; Mueller Hinton agar, 10^6/ml, 37°C for 16 hours; read-out: minimum growth inhibitory concentration (MIC)
# Protocol: as §1, §2
# S. aureus Terajima = settings: Staphylococcus aureus; S. aureus Terajima; Mueller Hinton agar, 10^6/ml, 37°C for 16 hours; read-out: minimum growth inhibitory concentration (MIC)
# Protocol: as §1, §2
# S.aureus 209p NIHJ JC1 = settings: Staphylococcus aureus; S.aureus 209p NIHJ JC1; Mueller Hinton agar, 10^6/ml, 37°C for 16 hours; read-out: minimum growth inhibitory concentration (MIC)
# Protocol: as §1, §2
# S.enteritidis G14 = settings: Salmonella enterica; S.enteritidis G14; Mueller Hinton agar, 10^6/ml, 37°C for 16 hours; read-out: minimum growth inhibitory concentration (MIC)
# Protocol: as §1, §2
# S.marcescens IAM1184 = settings: Serratia marcescens; S.marcescens IAM1184; Mueller Hinton agar, 10^6/ml, 37°C for 16 hours; read-out: minimum growth inhibitory concentration (MIC)
# Protocol: as §1, §2
# S.pyogenes Cook = settings: Streptococcus pyogenes; S.pyogenes Cook; Mueller Hinton agar, 10^6/ml, 37°C for 16 hours; read-out: minimum growth inhibitory concentration (MIC)
# Protocol: as §1, §2
# S.typhi 901 = settings: Salmonella enterica, 16 h, read-out: minimum growth inhibitory concentration (MIC)
# Protocol: as §1, §2
smiles,measurement,setting,value
"Nc1nc(C(=NOC(C(=O)O)c2ccccc2)C(=O)NC2C(=O)N3C(C(=O)[O-])=C(C[n+]4ccc5cc(O)c(O)cc5c4)CSC23)ns1 [Compound IV, (6R,7R)-7-[(Z)-2-(5-amino-l,2,4-thiadiazol-3-yl-2-[(alpha-carboxybenzyl)oxyimino]acetamide-3-(6,7-dihydroxy-2-isoquinolinium)methyl-3-cephem-4-carboxylate]",MIC,E.cloacae 963,0.005 µg/mL
same,MIC,K.pneumoniae PCI602,0.005 µg/mL
same,MIC,M.luteus ATCC9341,0.8 µg/mL
same,MIC,P.aeruginosa IFO3445,0.025 µg/mL
same,MIC,P.aeruginosa NCTC1049,0.0125 µg/mL
same,MIC,P.aeruginosa PAD1,0.025 µg/mL
same,MIC,P.morganii IFO3445,0.005 µg/mL
same,MIC,P.vulgalis OX-11,0.005 µg/mL
same,MIC,S. aureus Terajima,3.2 µg/mL
same,MIC,S.aureus 209p NIHJ JC1,3.2 µg/mL
same,MIC,S.enteritidis G14,0.005 µg/mL
same,MIC,S.marcescens IAM1184,0.005 µg/mL
same,MIC,S.pyogenes Cook,0.8 µg/mL
same,MIC,S.typhi 901,0.005 µg/mL
"CON=C(C(=O)NC1C(=O)N2C(C(=O)[O-])=C(C[n+]3ccc4cc(O)c(O)cc4c3)CSC12)c1nsc(N)n1 [Compound I, (6R,7R)-7-[(Z)-2-(5-amino-1,2,4-thiadiazol-3-yl-2-methoxyimino)acetamide]-3-(6,7-dihydroxy-2-isoquinolinium)methyl-3-cephem-4-carboxylate]",MIC,E.cloacae 963,0.005 µg/mL
same,MIC,K.pneumoniae PCI602,0.005 µg/mL
same,MIC,M.luteus ATCC9341,0.1 µg/mL
same,MIC,P.aeruginosa IFO3445,12.5 µg/mL
same,MIC,P.aeruginosa NCTC1049,0.2 µg/mL
same,MIC,P.aeruginosa PAD1,12.5 µg/mL
same,MIC,P.morganii IFO3445,0.005 µg/mL
same,MIC,P.vulgalis OX-11,0.005 µg/mL
same,MIC,S. aureus Terajima,1.6 µg/mL
same,MIC,S.aureus 209p NIHJ JC1,1.6 µg/mL
same,MIC,S.enteritidis G14,0.005 µg/mL
same,MIC,S.marcescens IAM1184,0.005 µg/mL
same,MIC,S.pyogenes Cook,0.05 µg/mL
same,MIC,S.typhi 901,0.005 µg/mL
"CON=C(C(=O)NC1C(=O)N2C(C(=O)[O-])=C(C[n+]3ccc4cc(O)c(O)cc4c3)CSC12)c1csc(N)n1 [Comparative Compound A, (6R,7R)-7-[(Z)-2-(2-amino-l,3-thiazol-4-yl)-2-methoxyiminolacetamide-3-(6,7-dihydroxy-2-isoquinolinium)methyl-3-cephem-4-carboxylate, reference compound]",MIC,E.cloacae 963,0.025 µg/mL
same,MIC,K.pneumoniae PCI602,0.005 µg/mL
same,MIC,M.luteus ATCC9341,0.4 µg/mL
same,MIC,P.aeruginosa IFO3445,50 µg/mL
same,MIC,P.aeruginosa NCTC1049,0.2 µg/mL
same,MIC,P.aeruginosa PAD1,50 µg/mL
same,MIC,P.morganii IFO3445,0.1 µg/mL
same,MIC,P.vulgalis OX-11,0.005 µg/mL
same,MIC,S. aureus Terajima,0.4 µg/mL
same,MIC,S.aureus 209p NIHJ JC1,0.4 µg/mL
same,MIC,S.enteritidis G14,0.005 µg/mL
same,MIC,S.marcescens IAM1184,0.005 µg/mL
same,MIC,S.pyogenes Cook,0.2 µg/mL
same,MIC,S.typhi 901,0.005 µg/mL

# Source: patent publication EP0347459A1, “CEPHALOSPORIN COMPOUNDS OR THEIR SALTS, PROCESS FOR THEIR PREPARATION, AND PHARMACEUTICAL COMPOSITIONS” (TEIJIN LIMITED, priority 1987, dated 1988)
